Ends that are not written are not given here.
How the values were obtained:
[1] = system: human umbilical vein endothelial cells; assay: HUVEC migration, Boyden chamber assay; assay type: cell-based; parameters: key to Migration: − = no activity; +/− = low activity; + = active; ++ = high activity; details: for Migration: Table 2 score
Experimental: Cells—HUVECs were isolated and used at passages 2-5. Grant et al., J. Cell Sci. 108:3685-3694 (1995). The cells were cultured in RPMI 1640 (Invitrogen, Carlsbad, Calif.) supplemented with 20% bovine calf serum (Hyclone Laboratories, Logan, Utah), 200 μg/ml of endothelial cell growth supplement (ECGS) (Collaborative Biomedical Products, Bedford, Mass.), 0.8 U/ml heparin sodium (Fisher Scientific, Pittsburgh, Pa.), penicillin/streptomycin (Invitrogen, Carlsbad, Calif.), 10 μg/ml gentamycin (Invitrogen, Carlsbad, Calif.), and 1% fungizone (Invitrogen, Carlsbad, Calif.).
Boyden chamber assay—HUVEC migration assays were conducted in a 48-well micro-chemotaxis chamber (Neuro Probe Inc., Cabin John, Md.) as previously described in Salcedo et al., J. Immunol. 166:7571-7578 (2001). Briefly, PVP-free polycarbonate membranes with 8 μm pores were coated with 50 μg/ml of rat tail collagen (BD Biosciences, Bedford, Mass.) in RPMI 1640 that contained 25 mM HEPES (Invitrogen, Carlsbad, Calif.) at 4° C. overnight. The membranes were dried at least 1 hr prior to use. HUVECs were serum-starved for 2 hr, harvested using Versene (Invitrogen, Carlsbad, Calif.), and resuspended in binding medium that contained RPMI 1640 with 1% BSA and 25 mM HEPES. The lower wells of the chamber were loaded with 1, 10, 100, and 1000 ng/ml of thymosin β4 or peptide fragments that were diluted in binding medium. Basic fibroblast growth factor (bFGF) (200 ng/ml) was used as a positive control. Cells were added to the upper portion of the chamber at a concentration of 50,000 cells per well. The chambers were incubated at 37° C. for 4 hr. The filters were fixed and stained using Diff-Quik (VWR, Bridgeport, N.J.). The cells that successfully migrated through the pores of the membrane were manually quantitated using a CK-2 Olympus microscope at 10× magnification. Each condition was assayed in triplicate, and the assay was repeated twice.

chick aortic arches = assay: Chick aortic arch vessel sprouting assay; assay type: cell-based; parameters: key to Sprouting: − = no activity; +/− = low activity; + = active; ++ = high activity; details: for Sprouting: Table 2 score; for activity in the assays (endothelial cell migration and vessel sprouting): statement covers both migration and sprouting assays
Experimental: Chick aortic arch assay—The aortic arch of 13-day-old chick embryos was removed and placed in RPMI 1640. After removal of surrounding connective tissue, transverse sections of the arch were made (1 mm). The resulting aortic rings were carefully attached to the bottom of a 48-well plate, one ring per well, with 20-30 μl of Matrigel (Collaborative Biomedical Products). The rings were placed so that the lumen of each ring could be seen. More Matrigel was added onto the top of the rings to seal them in place. A 100 μl volume of human endothelial—SFM basal growth medium (Invitrogen) containing 1% penicillin streptomycin was added to each well. Thymosin β4, peptide fragments, and exogenous actin (Sigma Chemical Co.) were added to wells in serum-free medium, bringing the final volume of each well to 400 μl. ECGS (200 μg/ml) was used as a positive control. The plates were incubated for 24 hr at 37° C. Rings were fixed and stained with Diff-Quik solution II. Sprouting was scored in a blind assessment by an observer using 10× magnification on an Olympus microscope. Six wells were used for each condition tested, and each assay was done three times.

hair follicles = assay: Topical thymosin β4 on normal (unwounded) shaved rat skin; assay type: in vivo; details: 30 days after treatment
Experimental: In these experiments, 8 week old female Sprague Dawley rats were utilized. Thymosin β4 was applied on the shaved backs of the animals at a concentration of 0.5 mg/ml in hydrogel three times per week (Monday, Wednesday and Friday). The hair of the animals was observed over 30 days. Some of the animals were sacrificed on day 7 after the initiation of treatment, while others were sacrificed on day 30 after initiation of treatment. Tissue sections were prepared using methods known in the art, as indicated above in Example 1. The tissue section samples were all read and compared on a blind basis by an observer trained in dermatology.
One study used shaved rats where thymosin β4 was applied topically on one side of the shaved area and on the opposing lateral side a control vehicle was applied. […] The number of anagen follicles was approximately two-fold greater than in rats treated with the control vehicle alone (see FIG. 7D). […] The increased number of hairs in the anagen phase was retained with continued tri-weekly treatment over 30 days. However, within 14 days of ceasing treatment, the number of active hair follicles decreased to control levels.

[2] = system: male patients between 18 and 41 years of age; post-menopausal women; details: cited from earlier work
[3] = 1 mg/day oral for 2 years, male patients 18 to 41 years

Molecule: Tβ10: naturally occurring β-thymosin with conserved actin-binding domain (ADKPDMGEIASFDKAKLKKTETQEKNTLPTKETIEQEKRSEIS; UniProt P63313 2-44, looked up)
- Migration [1]: ++
- Sprouting (chick aortic arches): +
- activity in the assays (endothelial cell migration and vessel sprouting) (chick aortic arches): active

Molecule: CC[C@H](C)[C@H](NC(=O)[C@H](CCC(=O)O)NC(=O)[C@H](C)NC(=O)[C@H](CCSC)NC(=O)[C@H](CC(=O)O)NC(=O)[C@@H]1CCCN1C(=O)[C@H](CCCCN)NC(=O)[C@H](CC(=O)O)NC(=O)[C@H](CO)NC(C)=O)C(=O)N[C@@H](CCC(=O)O)C(=O)N[C@@H](CCCCN)C(=O)N[C@@H](Cc1ccccc1)C(=O)N[C@@H](CC(=O)O)C(=O)N[C@@H](CCCCN)C(=O)N[C@@H](CO)C(=O)N[C@@H](CCCCN)C(=O)N[C@@H](CC(C)C)C(=O)N[C@@H](CCCCN)C(=O)N[C@@H](CCCCN)C(=O)N[C@H](C(=O)N[C@@H](CCC(=O)O)C(=O)N[C@H](C(=O)N[C@@H](CCC(N)=O)C(=O)N[C@@H](CCC(=O)O)C(=O)N[C@@H](CCCCN)C(=O)N[C@@H](CC(N)=O)C(=O)N1CCC[C@H]1C(=O)N[C@@H](CC(C)C)C(=O)N1CCC[C@H]1C(=O)N[C@@H](CO)C(=O)N[C@@H](CCCCN)C(=O)N[C@@H](CCC(=O)O)C(=O)N[C@H](C(=O)N[C@H](C(=O)N[C@@H](CCC(=O)O)C(=O)N[C@@H](CCC(N)=O)C(=O)N[C@@H](CCC(=O)O)C(=O)N[C@@H](CCCCN)C(=O)N[C@@H](CCC(N)=O)C(=O)N[C@@H](C)C(=O)NCC(=O)N[C@@H](CCC(=O)O)C(=O)N[C@@H](CO)C(=O)O)[C@@H](C)CC)[C@@H](C)O)[C@@H](C)O)[C@@H](C)O [Tβ4, Thymosin β4]
- change in the epidermis or in the thickness of the dermis (hair follicles): little change
- inflammatory cells (hair follicles): some increase

Molecule: Tβ4^18-19: synthetic, amino acid residues 13-19 of SEQ ID NO: 1 (DKSKLKK; listed as Bos taurus)
- Sprouting (chick aortic arches): −
- activity in the assays (endothelial cell migration and vessel sprouting) (chick aortic arches): inactive

Molecule: Tβ4^1-28: proteolytic fragment of naturally occurring Tβ4, residues 1 to KN (SDKPDMAEIEKFDKSKLKKTETQEKN; not fully specified; Thymosin beta-4; UniProt P62328 2-27, looked up, fragment)
- Sprouting (chick aortic arches): +/−
- activity in the assays (endothelial cell migration and vessel sprouting) (chick aortic arches): generally highly active

Molecule: amino acid residues 17-22 of SEQ ID NO: 1: six amino acid residues 17-22 of thymosin β4, shorter actin binding sequence (LKKTET; listed as Bos taurus)
- endothelial cell migration, in words [1]: promotes endothelial cell migration

Molecule: Tβ15^18-28: synthetic peptide of thymosin β15 amino acids 13-23, DK SKLKK TNTE
- vessel sprouting, in words (chick aortic arches): active
- Sprouting (chick aortic arches): +

Molecule: Tβ4^7-43: proteolytic fragment of naturally occurring Tβ4, residues 7-43 (AEIEKFDKSKLKKTETQEKNPLPSKETIEQEKQAGES; Thymosin beta-4; UniProt P62328 8-44, looked up, fragment)
- Migration [1]: ++
- Sprouting (chick aortic arches): ++
- activity in the assays (endothelial cell migration and vessel sprouting) (chick aortic arches): generally highly active

Molecule: Tβ4^20-48: synthetic, amino acid residues 20-43 of SEQ ID NO: 1 (TETQEKNPLPSKETIEQEKQAGES; listed as Bos taurus)
- Migration [1]: ++
- Sprouting (chick aortic arches): +
- activity in the assays (endothelial cell migration and vessel sprouting) (chick aortic arches): generally highly active

Molecule: thymosin β4-sulfoxide (SDKPDMAEIEKFDKSKLKKTETQEKNPLPSKETIEQEKQAGES; Thymosin beta-4 methionine sulfoxide; UniProt P62328 2-44, looked up) [Tβ4^(O), sulfoxide form prepared from the naturally occurring peptide]
- Migration [1]: ++
- Sprouting (chick aortic arches): ++
- activity in the assays (endothelial cell migration and vessel sprouting) (chick aortic arches): active

Molecule: CC(C)(C)NC(=O)[C@H]1CC[C@H]2[C@@H]3CC[C@H]4NC(=O)C=C[C@]4(C)[C@H]3CC[C@]12C [finasteride]
- cases in which further hair loss was prevented [2, 3]: 83%
- cases with visible hair growth [2, 3]: 66%
- efficacy in post-menopausal women ([2]; 1 mg/day over 1 year): ineffective
- side effects ([2]; human, in vivo): lack of libido, lack of potency, and mild reduction in semen

Molecule: Tβ4^10-28: synthetic, amino acid residues 10-28 of SEQ ID NO: 1 (EKFDKSKLKKTETQEKNPL; listed as Bos taurus)
- Migration [1]: +
- Sprouting (chick aortic arches): ++
- activity in the assays (endothelial cell migration and vessel sprouting) (chick aortic arches): generally highly active

Molecule: Tβ4^1-16: synthetic, the first 15 amino acid residues of SEQ ID NO: 1 (SDKPDMAEIEKFDKS; ends and bridges not checked; listed as Bos taurus)
- Migration [1]: −
- vessel sprouting, in words (chick aortic arches): very weak activity
- Sprouting (chick aortic arches): +/−

Molecule: Tβ4^27-48: proteolytic fragment PLP SKETI EQEKQ AGES (PLPSKETIEQEKQAGES; Thymosin beta-4; UniProt P62328 28-44, looked up, fragment)
- Migration [1]: +
- Sprouting (chick aortic arches): +/−

Molecule: Tβ4^13-43: proteolytic fragment of naturally occurring Tβ4, residues 13-43 (DKSKLKKTETQEKNPLPSKETIEQEKQAGES; Thymosin beta-4; UniProt P62328 14-44, looked up, fragment)
- Migration [1]: +
- Sprouting (chick aortic arches): +/−
- activity in the assays (endothelial cell migration and vessel sprouting) (chick aortic arches): generally highly active

Molecule: Tβ4^1-8: proteolytic fragment of naturally occurring Tβ4, acSDKP DM (Ac-SDKPDM; UniProt P62328 2-7, looked up, fragment)
- Sprouting (chick aortic arches): −
- activity in the assays (endothelial cell migration and vessel sprouting) (chick aortic arches): inactive

Molecule: Tβ4^Ala: naturally occurring β-thymosin, acADKP variant of Tβ4 (ADKPDMAEIEKFDKSKLKKTETQEKNPLPSKETIEQEKQAGES; Thymosin beta-4 N-terminal acetyl; UniProt P62328 2-44, looked up, variant S1A)
- Sprouting (chick aortic arches): +
- activity in the assays (endothelial cell migration and vessel sprouting) (chick aortic arches): active

From patent publication US7563766B2, “Methods and compositions for the promotion of a hair growth utilizing actin binding peptides” (The United States of America as represented by the …, priority 2002, dated 2009)
